Assay results taken from patent US20260224573A1, “CRYSTAL FORM OF COMPOUND, AND PREPARATION METHOD AND USE THEREOF” (FELICAMED BIOTECHNOLOGY CO., LTD., priority 2023, published 2026).
In brackets after ≈: the same amount, converted by molar mass. Where two headings read alike, the source gives them in different places.

Key:
[1] = Assessment of dynamic solubility; assay type: physicochemical; settings: for FC: crystal transfer (XRPD of solid) / pH of filtrate: 37° C.; for solubility / solubility at 1 h / solubility at 2 h / solubility at 4 h / solubility at 24 h: 37 °C, thermodynamic from solid; for solubility at 1 h / solubility at 2 h / solubility at 4 h / solubility at 24 h: read-out: S: solubility, calculated as free form
[2] = Source text: DVS isotherms were collected on an SMS (Surface Measurement Systems) DVS Intrinsic.
[3] = remark: listed apart in the source
Description: A method for testing the density and the tapped density included: (1) a certain mass of to-be-assessed sample was placed into a 5 mL measuring cylinder, and the volume at this moment was recorded. The bulk density was calculated by dividing the mass of the sample by the volume at this moment. (2) The measuring cylinder was slightly tapped 200 times, the final volume was recorded, and the tapped density was calculated by dividing the mass of the sample by the final volume. (3) Three parallel tests were conducted. A method for testing the angle of repose included: (1) a funnel was fixed vertically to a bottom surface, and the material was slowly placed into the funnel. (2) A well-proportioned cone of the material was formed on the bottom surface. The height and bottom surface diameter of the cone were measured. (3) Three parallel tests were conducted.

Q: What does the source list for `CC[S@@](=N)(=O)C[C@H]1CC[C@H](N(C)c2ncnc3[nH]ccc23)CC1` [Free crystal form A]?
A: FC: crystal transfer (XRPD of solid) ([1]; FaSSIF, 1 h): No; pH of filtrate ([1]; FaSSIF, 1 h): 6.6; FC: crystal transfer (XRPD of solid) ([1]; FaSSIF, 2 h): No; pH of filtrate ([1]; FaSSIF, 2 h): 6.6; FC: crystal transfer (XRPD of solid) ([1]; FaSSIF, 4 h): No; pH of filtrate ([1]; FaSSIF, 4 h): 6.6; FC: crystal transfer (XRPD of solid) ([1]; FaSSIF, 24 h): No; pH of filtrate ([1]; FaSSIF, 24 h): 6.6; FC: crystal transfer (XRPD of solid) ([1]; FeSSIF, 1 h): No; pH of filtrate ([1]; FeSSIF, 1 h): 5.3; FC: crystal transfer (XRPD of solid) ([1]; FeSSIF, 2 h): No; pH of filtrate ([1]; FeSSIF, 2 h): 5.3; FC: crystal transfer (XRPD of solid) ([1]; FeSSIF, 4 h): No; pH of filtrate ([1]; FeSSIF, 4 h): 5.3; FC: crystal transfer (XRPD of solid) ([1]; FeSSIF, 24 h): No; solubility ([1]; H2O and FaSSIF, water, in H2O and FaSSIF): 2100 to 2400 µg/mL (≈ 6.26 to 7.15 mM); FC: crystal transfer (XRPD of solid) ([1]; H2O, 1 h): No; FC: crystal transfer (XRPD of solid) ([1]; H2O, 2 h): No; FC: crystal transfer (XRPD of solid) ([1]; H2O, 4 h): No; pH of filtrate ([1]; H2O, 4 h): 6.7; FC: crystal transfer (XRPD of solid) ([1]; H2O, 24 h): No; solubility ([1]; SGF and FeSSIF, simulated gastric fluid, in SGF and FeSSIF, sample not fully dissolved): 9000 to 10000 µg/mL (≈ 26.8 to 29.8 mM); FC: crystal transfer (XRPD of solid) ([1]; SGF, 1 h): No; FC: crystal transfer (XRPD of solid) ([1]; SGF, 2 h): No; pH of filtrate ([1]; SGF, 2 h): 5.2; FC: crystal transfer (XRPD of solid) ([1]; SGF, 4 h): No; pH of filtrate ([1]; SGF, 4 h): 5.2; FC: crystal transfer (XRPD of solid) ([1]; SGF, 24 h): No; solubility at 1 h ([1]; fed state simulated intestinal fluid (FeSSIF), fessif, FeSSIF, 1 h): 9400 µg/mL (≈ 28 mM); solubility at 2 h ([1]; fed state simulated intestinal fluid (FeSSIF), fessif, FeSSIF, 2 h): 9200 µg/mL (≈ 27.4 mM); solubility at 4 h ([1]; fed state simulated intestinal fluid (FeSSIF), fessif, FeSSIF, 4 h): 9400 µg/mL (≈ 28 mM); solubility at 24 h ([1]; fed state simulated intestinal fluid (FeSSIF), fessif, FeSSIF, 24 h): 9900 µg/mL (≈ 29.5 mM); solubility at 1 h ([1]; simulated gastric fluid (SGF), simulated gastric fluid, SGF, 1 h): 9000 µg/mL (≈ 26.8 mM); solubility at 2 h ([1]; simulated gastric fluid (SGF), simulated gastric fluid, SGF, 2 h): 8900 µg/mL (≈ 26.5 mM); solubility at 4 h ([1]; simulated gastric fluid (SGF), simulated gastric fluid, SGF, 4 h): 8800 µg/mL (≈ 26.2 mM); solubility at 24 h ([1]; simulated gastric fluid (SGF), simulated gastric fluid, SGF, 24 h): 9100 µg/mL (≈ 27.1 mM); hygroscopicity ([2]; 25° C./80% RH): slight hygroscopicity; Crystal transformation after DVS ([2]; XRPD before and after DVS): No; flowability ([3]; conclusion from Carr index and angle of repose): high flowability; Bulk density ([3]; single tests 1 to 3): 0.11 g/mL; Tapped density ([3]; single tests 1 to 3, tapped 200 times): 0.23 g/mL; Average bulk density ([3]; three parallel tests): 0.11 g/mL; Average tapped density ([3]; three parallel tests, tapped 200 times): 0.23 g/mL
